Experimental findings from ChEMBL document CHEMBL1141561, “A new series of neutral 5-substituted 4-anilinoquinazolines as potent, orally active inhibitors of erbB2 receptor tyrosine kinase” (Bioorg Med Chem Lett, 2008) are described below.

For data set [1], the target named is Voltage-gated inwardly rectifying potassium channel KCNH2 (Homo sapiens, UniProt Q12809).
Data set [2] can be described thus: Dissociation constant, pKa of the compound. It is filed as physicochemical.
For data set [3], the target named is T1, Receptor tyrosine-protein kinase erbB-2 (Homo sapiens, UniProt P04626). Description: Inhibition of ebrB2 expressed in human MCF7 cells by autophosphorylation assay. It is filed as cell-based.
T1 sequence (P04626 whole entry): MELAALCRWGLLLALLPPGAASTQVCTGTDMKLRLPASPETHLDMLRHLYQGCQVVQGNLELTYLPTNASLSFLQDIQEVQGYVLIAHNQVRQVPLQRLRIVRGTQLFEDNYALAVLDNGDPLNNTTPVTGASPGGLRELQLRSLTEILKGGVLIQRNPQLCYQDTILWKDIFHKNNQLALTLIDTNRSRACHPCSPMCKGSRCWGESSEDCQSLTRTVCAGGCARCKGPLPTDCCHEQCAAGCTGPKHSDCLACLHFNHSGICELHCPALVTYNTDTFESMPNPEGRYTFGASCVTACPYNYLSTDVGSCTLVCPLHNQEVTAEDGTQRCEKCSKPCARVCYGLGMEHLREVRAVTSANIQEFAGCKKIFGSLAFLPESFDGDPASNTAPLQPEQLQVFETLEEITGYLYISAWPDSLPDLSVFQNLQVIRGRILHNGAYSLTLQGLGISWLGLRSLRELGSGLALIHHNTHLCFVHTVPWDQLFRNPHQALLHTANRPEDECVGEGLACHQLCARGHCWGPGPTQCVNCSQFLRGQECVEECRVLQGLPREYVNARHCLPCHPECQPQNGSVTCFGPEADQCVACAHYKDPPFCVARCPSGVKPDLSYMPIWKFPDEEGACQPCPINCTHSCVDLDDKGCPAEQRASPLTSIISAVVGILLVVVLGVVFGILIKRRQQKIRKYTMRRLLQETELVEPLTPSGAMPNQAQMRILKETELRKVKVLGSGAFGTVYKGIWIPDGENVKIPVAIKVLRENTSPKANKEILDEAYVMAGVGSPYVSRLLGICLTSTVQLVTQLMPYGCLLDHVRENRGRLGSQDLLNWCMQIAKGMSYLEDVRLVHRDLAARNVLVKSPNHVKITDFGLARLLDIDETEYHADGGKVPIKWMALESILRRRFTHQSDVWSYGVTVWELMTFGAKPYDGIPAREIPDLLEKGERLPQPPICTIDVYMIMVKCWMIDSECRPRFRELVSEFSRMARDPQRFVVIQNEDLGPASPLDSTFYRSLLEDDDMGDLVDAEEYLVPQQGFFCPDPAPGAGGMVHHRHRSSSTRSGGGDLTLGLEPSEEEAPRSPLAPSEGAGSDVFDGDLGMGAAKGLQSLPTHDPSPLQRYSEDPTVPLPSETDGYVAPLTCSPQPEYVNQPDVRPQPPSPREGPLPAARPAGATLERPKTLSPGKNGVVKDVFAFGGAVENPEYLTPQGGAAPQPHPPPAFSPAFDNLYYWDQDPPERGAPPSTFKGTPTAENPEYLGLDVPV
For data set [4], the species on record is Mus musculus. As to the kind of experiment: animal or person. The note with it: BT474c, po, 1 h, read-out: Inhibition.
Data set [5] can be described thus: Partition coefficient, log D at pH 7.4. The note with it: octanol/water. The class given is physicochemical.
For data set [6], the species on record is Mus musculus. Description: animal or person. The note with it: BT474c, po, 8 h, read-out: Inhibition.
A short description of data set [7]: Solubility in aqueous phosphate buffer at pH 7.4 after 24 hrs. It is filed as physicochemical.
The nature of data set [8]: Bioavailability in Beagle dog at 1 mg/kg, iv and 2 mg/kg, po. It is filed as ADME, organism-based, Canis lupus familiaris. The note with it: in vivo.
A short description of data set [9]: Fraction unbound ligand in mouse plasma protein. The class given is ADME, cell-free.
A further data set deals with KB. As to the kind of experiment: cells. The note with it: Homo sapiens.
Data set [10] in a line: Bioavailability in Han Wistar rat at 2 mg/kg, iv and 5 mg/kg, po. The note with it: in vivo. The class given is ADME, organism-based.
Data set [11] can be described thus: Volume of distribution at steady state in Beagle dog at 1 mg/kg, iv and 2 mg/kg, po. The class given is ADME, organism-based, Canis lupus familiaris. The note with it: in vivo, read-out: Vdss.
Data set [12] can be described thus: Fraction unbound ligand in Beagle dog at 0.2 mg/kg, iv and 0.4 mg/kg, po. It is filed as ADME, organism-based, Canis lupus familiaris. The note with it: in vivo.
Data set [13] in a line: Volume of distribution at steady state in Han Wistar rat at 2 mg/kg, iv and 5 mg/kg, po. The class given is ADME, organism-based. The note with it: in vivo, read-out: Vdss.
Data set [14] deals with Epidermal growth factor receptor (Homo sapiens, UniProt P00533).
Chain of Epidermal growth factor receptor (P00533 whole entry): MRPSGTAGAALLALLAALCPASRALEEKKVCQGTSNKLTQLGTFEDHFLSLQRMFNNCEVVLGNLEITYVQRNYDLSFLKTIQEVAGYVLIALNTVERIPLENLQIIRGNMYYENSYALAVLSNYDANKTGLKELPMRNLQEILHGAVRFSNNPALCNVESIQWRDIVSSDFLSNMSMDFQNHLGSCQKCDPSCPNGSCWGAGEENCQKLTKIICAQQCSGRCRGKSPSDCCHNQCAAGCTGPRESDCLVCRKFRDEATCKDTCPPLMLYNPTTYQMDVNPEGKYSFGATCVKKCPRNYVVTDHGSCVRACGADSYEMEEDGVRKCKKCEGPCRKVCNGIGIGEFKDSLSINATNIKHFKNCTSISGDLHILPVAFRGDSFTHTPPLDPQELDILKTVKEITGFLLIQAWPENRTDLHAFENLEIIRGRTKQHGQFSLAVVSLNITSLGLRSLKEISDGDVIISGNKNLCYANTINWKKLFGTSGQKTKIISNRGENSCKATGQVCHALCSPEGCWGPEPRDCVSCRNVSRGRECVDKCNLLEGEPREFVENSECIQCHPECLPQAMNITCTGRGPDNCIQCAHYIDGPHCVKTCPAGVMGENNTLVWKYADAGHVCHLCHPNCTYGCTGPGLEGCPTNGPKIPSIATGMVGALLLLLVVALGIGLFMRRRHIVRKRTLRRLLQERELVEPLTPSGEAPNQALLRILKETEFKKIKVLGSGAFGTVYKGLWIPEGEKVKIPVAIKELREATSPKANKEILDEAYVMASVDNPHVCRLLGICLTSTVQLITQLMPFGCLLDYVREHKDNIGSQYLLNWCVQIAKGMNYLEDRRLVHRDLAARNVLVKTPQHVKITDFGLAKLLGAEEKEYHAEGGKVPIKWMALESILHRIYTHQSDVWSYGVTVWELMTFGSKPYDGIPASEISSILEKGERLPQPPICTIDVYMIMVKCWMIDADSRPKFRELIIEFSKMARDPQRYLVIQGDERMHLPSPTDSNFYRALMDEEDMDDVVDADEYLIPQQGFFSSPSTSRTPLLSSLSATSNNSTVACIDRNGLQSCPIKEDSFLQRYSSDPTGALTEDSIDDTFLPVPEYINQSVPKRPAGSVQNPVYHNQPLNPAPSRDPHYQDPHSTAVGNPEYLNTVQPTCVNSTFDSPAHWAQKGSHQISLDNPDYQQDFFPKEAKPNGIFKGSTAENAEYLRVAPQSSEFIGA
Data set [15] is described as follows: Fraction unbound ligand in Han Wistar rat plasma protein. It is filed as ADME, cell-free.
For data set [16], the system named is Rattus norvegicus. Description: Clearance in Han Wistar rat assessed as hepatic blood flow at 2 mg/kg, iv and 5 mg/kg, po. It is filed as ADME, organism-based, Liver. The note with it: in vivo.
Data set [17] concerns Canis familiaris. Description: Clearance in Beagle dog assessed as hepatic blood flow at 1 mg/kg, iv and 2 mg/kg, po. The class given is ADME, organism-based, Canis lupus familiaris, Liver. The note with it: in vivo.
Data set [18] is filed under the species Mus musculus. As to the kind of experiment: animal or person. The note with it: BT474c, po, 1 h, read-out: Inhibition. The source holds these as a separate data set.
Data set [19] is filed under the species Mus musculus. As to the kind of experiment: animal or person. The note with it: BT474c, po, 8 h, read-out: Inhibition. The source holds these as a separate data set.
The next data set in a line: cells. The note with it: Homo sapiens, BT474c.
A short description of data set [20]: Volume of distribution at steady state in Beagle dog at 0.2 mg/kg, iv and 0.4 mg/kg, po. The note with it: in vivo, read-out: Vdss. The class given is ADME, organism-based, Canis lupus familiaris.
Data set [21] has as its target T1, Receptor tyrosine-protein kinase erbB-2. As to the kind of experiment: Inhibition of ebrB2.
Data set [22] in a line: Bioavailability in Beagle dog at 0.2 mg/kg, iv and 0.4 mg/kg, po. The note with it: in vivo. The class given is ADME, organism-based, Canis lupus familiaris.
The test system of data set [23] is Canis familiaris. Description: Clearance in Beagle dog assessed as hepatic blood flow at 0.2 mg/kg, iv and 0.4 mg/kg, po. The note with it: in vivo. The class given is ADME, organism-based, Canis lupus familiaris, Liver.
Data set [24] in a line: Bioavailability in Han Wistar rat at 0.4 mg/kg, iv and 1 mg/kg, po. It is filed as ADME, organism-based. The note with it: in vivo.
The nature of data set [25]: Volume of distribution at steady state in Han Wistar rat at 0.4 mg/kg, iv and 1 mg/kg, po. The class given is ADME, organism-based. The note with it: in vivo, read-out: Vdss.
For data set [26], the system named is Rattus norvegicus. As to the kind of experiment: Clearance in Han Wistar rat assessed as hepatic blood flow at 0.4 mg/kg, iv and 1 mg/kg, po. The class given is ADME, organism-based, Liver. The note with it: in vivo.

Values after ≈ are worked out from the molar mass of the structure shown.

Chain of Voltage-gated inwardly rectifying potassium channel KCNH2 (Q12809 whole entry): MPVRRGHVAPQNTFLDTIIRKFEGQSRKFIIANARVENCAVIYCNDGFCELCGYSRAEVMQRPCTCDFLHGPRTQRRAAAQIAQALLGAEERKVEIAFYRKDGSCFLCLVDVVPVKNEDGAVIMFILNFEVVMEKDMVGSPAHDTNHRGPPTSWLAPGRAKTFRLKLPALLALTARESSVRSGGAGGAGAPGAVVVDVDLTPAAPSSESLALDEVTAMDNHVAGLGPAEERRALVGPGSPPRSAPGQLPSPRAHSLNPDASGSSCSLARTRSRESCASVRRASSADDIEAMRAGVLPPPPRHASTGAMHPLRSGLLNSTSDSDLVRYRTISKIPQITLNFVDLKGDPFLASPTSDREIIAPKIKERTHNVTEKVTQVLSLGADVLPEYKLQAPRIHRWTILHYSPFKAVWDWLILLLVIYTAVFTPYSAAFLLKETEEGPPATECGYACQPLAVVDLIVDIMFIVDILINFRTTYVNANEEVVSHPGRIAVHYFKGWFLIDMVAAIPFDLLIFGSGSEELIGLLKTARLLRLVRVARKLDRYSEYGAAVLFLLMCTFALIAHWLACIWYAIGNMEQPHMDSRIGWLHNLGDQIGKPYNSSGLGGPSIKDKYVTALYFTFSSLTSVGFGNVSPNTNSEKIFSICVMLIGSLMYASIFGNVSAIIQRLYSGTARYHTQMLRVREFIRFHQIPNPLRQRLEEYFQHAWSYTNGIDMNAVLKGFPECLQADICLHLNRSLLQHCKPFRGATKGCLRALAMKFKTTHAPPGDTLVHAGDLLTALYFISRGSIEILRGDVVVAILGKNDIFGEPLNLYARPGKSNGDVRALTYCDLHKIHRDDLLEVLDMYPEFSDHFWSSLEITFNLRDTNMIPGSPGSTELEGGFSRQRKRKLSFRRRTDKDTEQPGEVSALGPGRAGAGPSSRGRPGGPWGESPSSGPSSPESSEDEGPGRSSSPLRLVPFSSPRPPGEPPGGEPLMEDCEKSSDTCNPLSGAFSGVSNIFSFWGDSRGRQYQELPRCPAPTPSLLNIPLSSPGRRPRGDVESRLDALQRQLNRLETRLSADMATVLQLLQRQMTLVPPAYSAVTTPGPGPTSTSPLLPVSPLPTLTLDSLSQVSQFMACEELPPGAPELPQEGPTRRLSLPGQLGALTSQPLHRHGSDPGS

As to `CN1CCC(Oc2cccc3ncnc(Nc4ccc(OCc5ccccn5)c(Cl)c4)c23)CC1`, in data set [1], half-maximal inhibition (IC50) required 5000 nM. For the same compound, the pKa (in general, the negative logarithm of the acid dissociation constant) in [2] came out at 8.1.

Take `Cc1ccc(Oc2ccc(Nc3ncnc4cccc(OCC(=O)N(C)CCO)c34)cc2C)cn1`: it took 130 nM to reach half-maximal inhibition in [3] (IC50).

As to `C[C@H](Oc1cccc2ncnc(Nc3ccc(OCc4ccccn4)c(Cl)c3)c12)C(=O)N(C)C`, the IC50 (usually the concentration that gives 50% inhibition) in data set [1] was determined as 10000 nM; in data set [3], 43 nM.

In turn, `C[C@H](Oc1cccc2ncnc(Nc3ccc(OCc4ccccn4)c(Cl)c3)c12)C(=O)N(C)CCO` showed a 50% inhibitory concentration (IC50) in [3] of 79 nM. This counts as double-digit nanomolar.

For the compound `Cc1ccc(Oc2ccc(Nc3ncnc4cccc(O[C@H](C)C(=O)N(C)C)c34)cc2C)cn1`, the inhibition in vivo at 100 mg/kg in the data set filed under Mus musculus [4] was determined as 37%; in the data set listed under Mus musculus [6], 55%. The log distribution coefficient (logD) (commonly the decadic logarithm of the distribution of all forms, ionised or not, between an organic phase and buffer at a given pH) in data set [5] is greater than 4.3. Moreover, in data set [7], the solubility (commonly the dissolved amount per volume that the medium holds) at 24 h came to 28 µM (≈ 12.8 µg/mL). The bioavailability (in general, dose-corrected exposure relative to a reference, in per cent) in data set [8] is 47%; in data set [10] it was 67%. Moreover, the fraction unbound (in general, free concentration divided by total concentration) in data set [9] stood at 0.011; in data set [12], 0.025; in data set [15] it was 0.017. For the same compound, the figures for the IC50 (with KB; in [1]; in data set [14]) were 2700 nM, 8000 nM and 1100 nM, respectively. Besides, the Vd came out at 1.8 L/kg in data set [11] and 0.9 L/kg in data set [13]. Also, the “%hepatic blood flow” value in the data set on Rattus norvegicus [16] stood at 12%; in the data set on Canis familiaris [17], 48%.

Turning to `COCCN(C)C(=O)[C@@H](C)Oc1cccc2ncnc(Nc3ccc(Oc4ccc(C)nc4)c(C)c3)c12`, half-maximal inhibition in data set [3] (IC50) was put at 120 nM. This counts as sub-micromolar.

Consider `Cc1ccc(Oc2ccc(Nc3ncnc4cccc(O[C@H](C)C(=O)N(C)CCO)c34)cc2C)cn1`, for which, in data set [5], the logD was 3.8. The inhibition in vivo at 100 mg/kg in the data set listed under Mus musculus [18] worked out at 78%; in the data set filed under Mus musculus [19], 36%. This compound yielded a solubility at 24 h in data set [7] of 66 µM (≈ 32.2 µg/mL). Besides, the fraction unbound in data set [9] came to 0.025; in [12], 0.038; in [15], 0.029. Further, the 50% inhibitory concentration (IC50) with KB is 23000 nM; in “cells”, 270 nM; in data set [21] it was 2 nM; in data set [14] it was 2000 nM; in data set [3], 69 nM. Further, the bioavailability in data set [10] stood at 34%; in data set [22] it was 33%. Moreover, the Vd in [20] was 0.9 L/kg; in data set [13], 1 L/kg. The “%hepatic blood flow” value is listed as 23% with Rattus norvegicus [16] and 34% with Canis familiaris [23].

Compound `C[C@@H](Oc1cccc2ncnc(Nc3ccc(OCc4ccccn4)c(Cl)c3)c12)C(=O)N(C)CCO` had a concentration for half-maximal inhibition (IC50) in [3] of 31 nM.

As to `CN1CCN(C(=O)COc2cccc3ncnc(Nc4ccc(OCc5ccccn5)c(Cl)c4)c23)CC1`, half-maximal inhibition in [3] (IC50) was put at 350 nM.

In data set [3], `CN(CCO)C(=O)COc1cccc2ncnc(Nc3ccc(OCc4ccccn4)c(Cl)c3)c12` displayed an IC50 of 120 nM.

In turn, `O=C(COc1cccc2ncnc(Nc3ccc(OCc4ccccn4)c(Cl)c3)c12)N1CCOCC1` showed an IC50 in data set [3] of 140 nM. The IC50 values of the last two compounds are within 1.5-fold of each other.

Regarding `Cc1ccc(Oc2ccc(Nc3ncnc4cccc(O[C@H](C)C(=O)NCCO)c34)cc2C)cn1`, in [3], the IC50 is 200 nM.

Take `NC(=O)COc1cccc2ncnc(Nc3ccc(OCc4ccccn4)c(Cl)c3)c12`: inhibition in data set [3] was half-maximal at 180 nM (IC50).

Consider `Cc1ccc(Oc2ccc(Nc3ncnc4cccc(O[C@H](C)C(=O)N5CCOCC5)c34)cc2C)cn1`, for which, in [3], the concentration for half-maximal inhibition (IC50) stood at 22 nM.

In the case of `Cc1ccc(Oc2ccc(Nc3ncnc4cccc(O[C@H](C)C(=O)N5CCOCC5)c34)cc2Cl)cn1`, the IC50 in data set [3] was found to be 27 nM. This IC50 and that of the compound before are within 1.5-fold of each other.

In the case of `CNC(=O)[C@@H](C)Oc1cccc2ncnc(Nc3ccc(OCc4ccccn4)c(Cl)c3)c12`, the values for the IC50 in [1] and in [3] were 32000 nM and 66 nM, respectively.

On to `C[C@@H](Oc1cccc2ncnc(Nc3ccc(OCc4ccccn4)c(Cl)c3)c12)C(=O)N1CCOCC1`, for which the IC50 in data set [1] came out at 10000 nM; in [3] it was 19 nM.

As for `COc1cc(Nc2ncnc3cccc(O[C@H](C)C(=O)N4CCOCC4)c23)ccc1Oc1ccc(C)nc1`, in [3], half-maximal inhibition (IC50) was put at 23 nM.

`C[C@@H](Oc1cccc2ncnc(Nc3ccc(OCc4ccccn4)c(Cl)c3)c12)C(=O)N(C)C` showed a logD in [5] of 3.7. This compound also registered a solubility at 24 h in data set [7] of 6 µM (≈ 2.87 µg/mL). The IC50 with KB was 1000 nM; in data set [1], 14000 nM; in “cells”, 100 nM; in [21] it was less than 1 nM; in [14], 22 nM; in [3], 34 nM. Besides, the Vd in data set [20] stood at 1 L/kg; in data set [25] it was 0.5 L/kg. Further, the bioavailability in [24] was found to be 75%; in data set [22] it was 89%. In addition, the figures for the unbound share (fraction unbound) in [12] and in [15] were 0.011 and 0.004, respectively. Moreover, the results for the “%hepatic blood flow” value in the data set on Rattus norvegicus [26] and with Canis familiaris [23] were 4.3% and 24%, respectively.

Regarding `Cc1ccc(Oc2ccc(Nc3ncnc4cccc(O[C@@H](C)C(=O)N(C)C)c34)cc2C)cn1`, the IC50 in data set [1] was 11000 nM.

For `Cc1ccc(Oc2ccc(Nc3ncnc4cccc(O[C@@H](C)C(=O)N5CCOCC5)c34)cc2C)cn1`, 35 nM corresponded to half-maximal inhibition in data set [3] (IC50).

As to `Cc1ccc(Oc2ccc(Nc3ncnc4cccc(O[C@@H](C)C(=O)N(C)CCO)c34)cc2C)cn1`, the IC50 in data set [3] came out at 78 nM.
